Read-outs that look alike come from different tables or passages of the source.
Key:
[1] = Chemical stability of 2% solutions of 1-acetoxychavicol acetate on storage, followed by HPLC; type: physicochemical
Procedure: 1-acetoxychavicol acetate was dissolved as a 2% solution in water ethanol (70:30), an aqueous shampoo formulation, and in various vegetable oils. […] Table 1 Assessment of stability of 2% solutions of 1-acetoxychavicol acetate in wt.-percent over time

[2] = as above; type: physicochemical; details: solutions of up to 5 wt.-percent in vegetable oil, e.g. sunflower or rape seed oil; even at higher temperatures
[3] = cited from earlier work

C=CC(OC(C)=O)c1ccc(OC(C)=O)cc1 (centres unmarked) [1-acetoxychavicol acetate]
no relevant degradation: degradation ([1]; 2% solution in vegetable oils, after 20 weeks of storage)
80 wt.-percent: stability of 2% solutions of 1-acetoxychavicol acetate ([1]; Aq. Ethanol, storage time 1 w) | stability of 2% solutions of 1-acetoxychavicol acetate ([1]; Shampoo, storage time 1 w)
60 wt.-percent: stability of 2% solutions of 1-acetoxychavicol acetate ([1]; Aq. Ethanol, storage time 2 w) | stability of 2% solutions of 1-acetoxychavicol acetate ([1]; Shampoo, storage time 2 w)
95 wt.-percent: stability of 2% solutions of 1-acetoxychavicol acetate ([1]; Olive oil, storage time 7 w) | stability of 2% solutions of 1-acetoxychavicol acetate ([1]; Olive oil, storage time 8 w) | stability of 2% solutions of 1-acetoxychavicol acetate ([1]; Olive oil, storage time 9 w) | stability of 2% solutions of 1-acetoxychavicol acetate ([1]; Peanut oil, storage time 7 w) | stability of 2% solutions of 1-acetoxychavicol acetate ([1]; Peanut oil, storage time 8 w) | stability of 2% solutions of 1-acetoxychavicol acetate ([1]; Peanut oil, storage time 9 w) | stability of 2% solutions of 1-acetoxychavicol acetate ([1]; Sesame oil, storage time 7 w) | stability of 2% solutions of 1-acetoxychavicol acetate ([1]; Sesame oil, storage time 8 w) | stability of 2% solutions of 1-acetoxychavicol acetate ([1]; Sesame oil, storage time 9 w)
55 wt.-percent: stability of 2% solutions of 1-acetoxychavicol acetate ([1]; Shampoo, storage time 3 w)
90 wt.-percent: stability of 2% solutions of 1-acetoxychavicol acetate ([1]; HO Sunflower oil, storage time 20 w) | stability of 2% solutions of 1-acetoxychavicol acetate ([1]; Olive oil, storage time 10 w) | stability of 2% solutions of 1-acetoxychavicol acetate ([1]; Olive oil, storage time 15 w) | stability of 2% solutions of 1-acetoxychavicol acetate ([1]; Peanut oil, storage time 10 w) | stability of 2% solutions of 1-acetoxychavicol acetate ([1]; Peanut oil, storage time 15 w) | stability of 2% solutions of 1-acetoxychavicol acetate ([1]; Sesame oil, storage time 10 w) | stability of 2% solutions of 1-acetoxychavicol acetate ([1]; Sesame oil, storage time 15 w)
stable for several month: stability ([3]; solution with 30-40% ethanol, neutral pH, room temperature)
instable: stability ([3]; in aqueous solution) | stability ([3]; under thermal treatment, e.g. distillation)
20 wt.-percent: stability of 2% solutions of 1-acetoxychavicol acetate ([1]; Aq. Ethanol, storage time 5 w) | stability of 2% solutions of 1-acetoxychavicol acetate ([1]; Shampoo, storage time 9 w)
35 wt.-percent: stability of 2% solutions of 1-acetoxychavicol acetate ([1]; Shampoo, storage time 6 w)
fast degradation: degradation ([1]; 2% solution in the shampoo formulation) | degradation ([1]; 2% solution in water (water ethanol 70:30))
85 wt.-percent: stability of 2% solutions of 1-acetoxychavicol acetate ([1]; Olive oil, storage time 20 w) | stability of 2% solutions of 1-acetoxychavicol acetate ([1]; Peanut oil, storage time 20 w) | stability of 2% solutions of 1-acetoxychavicol acetate ([1]; Sesame oil, storage time 20 w)
10 wt.-percent: stability of 2% solutions of 1-acetoxychavicol acetate ([1]; Shampoo, storage time 10 w)
remains stable over months: stability [2]
0 wt.-percent: stability of 2% solutions of 1-acetoxychavicol acetate ([1]; Aq. Ethanol, storage time 6 w) | stability of 2% solutions of 1-acetoxychavicol acetate ([1]; Aq. Ethanol, storage time 7 w) | stability of 2% solutions of 1-acetoxychavicol acetate ([1]; Aq. Ethanol, storage time 8 w) | stability of 2% solutions of 1-acetoxychavicol acetate ([1]; Aq. Ethanol, storage time 9 w) | stability of 2% solutions of 1-acetoxychavicol acetate ([1]; Aq. Ethanol, storage time 10 w) | stability of 2% solutions of 1-acetoxychavicol acetate ([1]; Aq. Ethanol, storage time 15 w) | stability of 2% solutions of 1-acetoxychavicol acetate ([1]; Aq. Ethanol, storage time 20 w) | stability of 2% solutions of 1-acetoxychavicol acetate ([1]; Shampoo, storage time 15 w) | stability of 2% solutions of 1-acetoxychavicol acetate ([1]; Shampoo, storage time 20 w)
particularly stable: stability ([1]; solution in rapeseed oil) | stability ([1]; solution in sunflower oil)
25 wt.-percent: stability of 2% solutions of 1-acetoxychavicol acetate ([1]; Shampoo, storage time 8 w)
30 wt.-percent: stability of 2% solutions of 1-acetoxychavicol acetate ([1]; Aq. Ethanol, storage time 4 w) | stability of 2% solutions of 1-acetoxychavicol acetate ([1]; Shampoo, storage time 7 w)
100 wt.-percent: stability of 2% solutions of 1-acetoxychavicol acetate ([1]; Aq. Ethanol, storage time 0 w) | stability of 2% solutions of 1-acetoxychavicol acetate ([1]; HO Rape seed oil, storage time 0 w) | stability of 2% solutions of 1-acetoxychavicol acetate ([1]; HO Rape seed oil, storage time 1 w) | stability of 2% solutions of 1-acetoxychavicol acetate ([1]; HO Rape seed oil, storage time 2 w) | stability of 2% solutions of 1-acetoxychavicol acetate ([1]; HO Rape seed oil, storage time 3 w) | stability of 2% solutions of 1-acetoxychavicol acetate ([1]; HO Rape seed oil, storage time 4 w) | stability of 2% solutions of 1-acetoxychavicol acetate ([1]; HO Rape seed oil, storage time 5 w) | stability of 2% solutions of 1-acetoxychavicol acetate ([1]; HO Rape seed oil, storage time 6 w) | stability of 2% solutions of 1-acetoxychavicol acetate ([1]; HO Rape seed oil, storage time 7 w) | stability of 2% solutions of 1-acetoxychavicol acetate ([1]; HO Rape seed oil, storage time 8 w) | stability of 2% solutions of 1-acetoxychavicol acetate ([1]; HO Rape seed oil, storage time 9 w) | stability of 2% solutions of 1-acetoxychavicol acetate ([1]; HO Rape seed oil, storage time 10 w) | stability of 2% solutions of 1-acetoxychavicol acetate ([1]; HO Rape seed oil, storage time 15 w) | stability of 2% solutions of 1-acetoxychavicol acetate ([1]; HO Rape seed oil, storage time 20 w) | stability of 2% solutions of 1-acetoxychavicol acetate ([1]; HO Sunflower oil, storage time 0 w) | stability of 2% solutions of 1-acetoxychavicol acetate ([1]; HO Sunflower oil, storage time 1 w) | stability of 2% solutions of 1-acetoxychavicol acetate ([1]; HO Sunflower oil, storage time 2 w) | stability of 2% solutions of 1-acetoxychavicol acetate ([1]; HO Sunflower oil, storage time 3 w) | stability of 2% solutions of 1-acetoxychavicol acetate ([1]; HO Sunflower oil, storage time 4 w) | stability of 2% solutions of 1-acetoxychavicol acetate ([1]; HO Sunflower oil, storage time 5 w) | stability of 2% solutions of 1-acetoxychavicol acetate ([1]; HO Sunflower oil, storage time 6 w) | stability of 2% solutions of 1-acetoxychavicol acetate ([1]; HO Sunflower oil, storage time 7 w) | stability of 2% solutions of 1-acetoxychavicol acetate ([1]; HO Sunflower oil, storage time 8 w) | stability of 2% solutions of 1-acetoxychavicol acetate ([1]; HO Sunflower oil, storage time 9 w) | stability of 2% solutions of 1-acetoxychavicol acetate ([1]; HO Sunflower oil, storage time 10 w) | stability of 2% solutions of 1-acetoxychavicol acetate ([1]; HO Sunflower oil, storage time 15 w) | stability of 2% solutions of 1-acetoxychavicol acetate ([1]; Olive oil, storage time 0 w) | stability of 2% solutions of 1-acetoxychavicol acetate ([1]; Olive oil, storage time 1 w) | stability of 2% solutions of 1-acetoxychavicol acetate ([1]; Olive oil, storage time 2 w) | stability of 2% solutions of 1-acetoxychavicol acetate ([1]; Olive oil, storage time 3 w) | stability of 2% solutions of 1-acetoxychavicol acetate ([1]; Olive oil, storage time 4 w) | stability of 2% solutions of 1-acetoxychavicol acetate ([1]; Olive oil, storage time 5 w) | stability of 2% solutions of 1-acetoxychavicol acetate ([1]; Olive oil, storage time 6 w) | stability of 2% solutions of 1-acetoxychavicol acetate ([1]; Peanut oil, storage time 0 w) | stability of 2% solutions of 1-acetoxychavicol acetate ([1]; Peanut oil, storage time 1 w) | stability of 2% solutions of 1-acetoxychavicol acetate ([1]; Peanut oil, storage time 2 w) | stability of 2% solutions of 1-acetoxychavicol acetate ([1]; Peanut oil, storage time 3 w) | stability of 2% solutions of 1-acetoxychavicol acetate ([1]; Peanut oil, storage time 4 w) | stability of 2% solutions of 1-acetoxychavicol acetate ([1]; Peanut oil, storage time 5 w) | stability of 2% solutions of 1-acetoxychavicol acetate ([1]; Peanut oil, storage time 6 w) | stability of 2% solutions of 1-acetoxychavicol acetate ([1]; Sesame oil, storage time 0 w) | stability of 2% solutions of 1-acetoxychavicol acetate ([1]; Sesame oil, storage time 1 w) | stability of 2% solutions of 1-acetoxychavicol acetate ([1]; Sesame oil, storage time 2 w) | stability of 2% solutions of 1-acetoxychavicol acetate ([1]; Sesame oil, storage time 3 w) | stability of 2% solutions of 1-acetoxychavicol acetate ([1]; Sesame oil, storage time 4 w) | stability of 2% solutions of 1-acetoxychavicol acetate ([1]; Sesame oil, storage time 5 w) | stability of 2% solutions of 1-acetoxychavicol acetate ([1]; Sesame oil, storage time 6 w) | stability of 2% solutions of 1-acetoxychavicol acetate ([1]; Shampoo, storage time 0 w)
50 wt.-percent: stability of 2% solutions of 1-acetoxychavicol acetate ([1]; Aq. Ethanol, storage time 3 w) | stability of 2% solutions of 1-acetoxychavicol acetate ([1]; Shampoo, storage time 4 w)
40 wt.-percent: stability of 2% solutions of 1-acetoxychavicol acetate ([1]; Shampoo, storage time 5 w)
at least 1 h: time stable ([3]; in vegetable oil, at up to 120°C)

Source: patent publication EP4464309A1, “ANTIDANDRUFF COMPOSITION COMPRISING 1-ACETOXYCHAVICOL ACETATE” (Analyticon Discovery GmbH, priority 2023, dated 2024)
